We go through 21 molecules from US20150274664A1 (MERCK SHARP & DOHME CORP., priority 2012, published 2015).

A word on the EC50: it is the concentration needed to bring the measured effect to its halfway point. High values mean a less potent agent, low ones a more potent agent.

The target of this experiment is T1, human GPR119 (Homo sapiens, UniProt Q8TDV5).
T1 construct: expressed in transfected cells; host or cells: HEK293
T1 sequence (Q8TDV5 1-335): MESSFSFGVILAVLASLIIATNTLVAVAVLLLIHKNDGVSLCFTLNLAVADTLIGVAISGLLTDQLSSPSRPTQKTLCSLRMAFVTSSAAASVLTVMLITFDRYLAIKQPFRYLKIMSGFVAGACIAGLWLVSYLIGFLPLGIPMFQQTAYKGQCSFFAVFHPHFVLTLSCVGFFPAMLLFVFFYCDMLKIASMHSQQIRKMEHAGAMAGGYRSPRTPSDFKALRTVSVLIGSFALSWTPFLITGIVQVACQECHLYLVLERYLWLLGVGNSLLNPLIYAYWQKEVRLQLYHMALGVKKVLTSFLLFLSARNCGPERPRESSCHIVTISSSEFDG
The experiment is described as follows: Measurement of GPR119 signaling using LANCE 384-well cAMP kit (LCMP assay). The experiment is classed as cell-based. To be noted: HEK293 cells stably transfected with human GPR119. On the procedure: Measurement of GPR119 Signaling Using LANCE 384-Well cAMP Kit (LCMP Assay)
Human embryonic kidney (HEK) 293 cell lines stably transfected with human GPR119 were maintained in DMEM media containing FBS, penicillin-streptomycin, HEPES, and hygromycin. For the cAMP assay, the transfected cells were harvested using a non-enzymatic cell dissociation solution (GIBCO 2672), pelleted and resuspended in stimulation buffer (DMEM, 25 mM Hepes, 0.1% BSA, pH 7.4 in the presence of 100 μM phosphodiesterase inhibitors). The adenylate cyclase assay was constructed following the LANCE™ cAMP Kit (Perkin Elmer, AD0264) instructions. Briefly, cells with Alexa Fluor® 647-anti cAMP antibody were incubated with 10 point series diluted test article in stimulation buffer with a final concentration of 2.5% DMSO for 45 minutes. The reaction was stopped by incubating with the supplied detection buffer containing the europium chelate of the Eu-SA/Biotin-cAMP tracer for 3 hours. The assay was performed in duplicate in a 384 well plate for duplicate plates. Fluorescence at 665 nm was measured using a PHERAstar instrument. Basal activity was determined using a DMSO control and maximum response was defined as cAMP stimulation produced by an internal agonist control. Standard cAMP concentrations were assayed concurrently for conversion of fluorescence signal to cAMP level. The data was analyzed using 4-parameter curve fit in Microsoft Excel.
A general note: Time-resolved FRET reads energy transfer from a long-lived donor to a nearby acceptor.
In turn, `CC(C)c1noc(N2CCC([C@@H]3C[C@H]3CCOc3ccc(S(C)(=O)=O)cc3F)CC2)n1` [Example 66, 5-(4-((1S,2S)-2-(2-(2-fluoro-4-(methylsulfonyl)phenoxy)ethyl)cyclopropyl)piperidin-1-yl)-3-isopropyl-1,2,4-oxadiazole] showed an EC50 of 3.5 nM.
The result for `CC(C)c1noc(N2CCC([C@@H]3C[C@H]3CCOc3ccc(-n4cnnn4)cc3F)CC2)n1` [Example 67, 5-(4-((1S,2S)-2-(2-(2-fluoro-4-(1H-tetrazol-1-yl)phenoxy)ethyl)cyclopropyl)piperidin-1-yl)-3-isopropyl-1,2,4-oxadiazole] reads 6.2 nM; that for `CC(C)c1noc(N2CCC([C@H]3C[C@@H]3CCOc3ccc(-n4cnnn4)cc3F)CC2)n1` [Example 68, 5-(4-((1R,2R)-2-(2-(2-fluoro-4-(1H-tetrazol-1-yl)phenoxy)ethyl)cyclopropyl)piperidin-1-yl)-3-isopropyl-1,2,4-oxadiazole], 3.5 nM.
As for `CC(C)c1noc(N2CCC([C@@H]3C[C@H]3CCOc3ccc(CC(=O)N4CCC4)c(F)c3)CC2)n1` [Example 69, 1-(azetidin-1-yl)-2-(2-fluoro-4-(2-((1S,2S)-2-(1-(3-isopropyl-1,2,4-oxadiazol-5-yl)piperidin-4-yl)cyclopropyl)ethoxy)phenyl)ethanone], the figure is 2.2 nM; as for `CC(C)c1noc(N2CCC([C@@H]3C[C@H]3CCOc3ccc(CC(=O)N4CCC4)cc3F)CC2)n1` [Example 70, 1-(azetidin-1-yl)-2-(3-fluoro-4-(2-((1S,2S)-2-(1-(3-isopropyl-1,2,4-oxadiazol-5-yl)piperidin-4-yl)cyclopropyl)ethoxy)phenyl)ethanone], 6.8 nM.
Molecule `CCS(=O)(=O)c1ccc(OCC[C@@H]2C[C@H]2C2CCN(c3nc(C(C)C)no3)CC2)c(F)c1` [Example 71, 5-(4-((1S,2S)-2-(2-(4-(ethylsulfonyl)-2-fluorophenoxy)ethyl)cyclopropyl)piperidin-1-yl)-3-isopropyl-1,2,4-oxadiazole] returned an EC50 of 3.8 nM. This EC50 lies about 1.8-fold lower than the previous one.
As for `CC(C)c1noc(N2CCC([C@H]3C[C@@H]3CCOc3ccc(CC(=O)N4CCC4)c(F)c3)CC2)n1` [Example 72, 1-(azetidin-1-yl)-2-(2-fluoro-4-(2-((1R,2R)-2-(1-(3-isopropyl-1,2,4-oxadiazol-5-yl)piperidin-4-yl)cyclopropyl)ethoxy)phenyl)ethanone], the figure is 2.6 nM.
As for `COCc1noc(N2CCC([C@H]3C[C@@H]3CCOc3ccc(CC(=O)N4CCC4)c(F)c3)CC2)n1` [Example 73, 1-(azetidin-1-yl)-2-(2-fluoro-4-(2-((1R,2R)-2-(1-(3-(methoxymethyl)-1,2,4-oxadiazol-5-yl)piperidin-4-yl)cyclopropyl)ethoxy)phenyl)ethanone], the figure is 6.4 nM; as for `CC(C)c1noc(N2CCC([C@H]3C[C@@H]3CCOc3ccc(CC(=O)N4CCC4)cc3F)CC2)n1` [Example 74, 1-(azetidin-1-yl)-2-(3-fluoro-4-(2-((1R,2R)-2-(1-(3-isopropyl-1,2,4-oxadiazol-5-yl)piperidin-4-yl)cyclopropyl)ethoxy)phenyl)ethanone], 9.5 nM; as for `CC(C)c1noc(N2CCC([C@H]3C[C@@H]3CCOc3ccc(CC(=O)N(C)C)c(F)c3)CC2)n1` [Example 75, 2-(2-fluoro-4-(2-((1R,2R)-2-(1-(3-isopropyl-1,2,4-oxadiazol-5-yl)piperidin-4-yl)cyclopropyl)ethoxy)phenyl)-N,N-dimethylacetamide], 8.1 nM.
With `CC(C)c1noc(N2CCC([C@@H]3C[C@H]3CCOc3ccc(CC(=O)N(C)C)c(F)c3)CC2)n1` [Example 76, 2-(2-fluoro-4-(2-((1S,2S)-2-(1-(3-isopropyl-1,2,4-oxadiazol-5-yl)piperidin-4-yl)cyclopropyl)ethoxy)phenyl)-N,N-dimethylacetamide], the EC50 came out at 6.3 nM.
As for `CC(C)c1noc(N2CCC([C@@H]3C[C@H]3CCOc3cc(F)c(CC(=O)N(C)C)c(F)c3)CC2)n1` [Example 77, 2-(2,6-difluoro-4-(2-((1S,2S)-2-(1-(3-isopropyl-1,2,4-oxadiazol-5-yl)piperidin-4-yl)cyclopropyl)ethoxy)phenyl)-N,N-dimethylacetamide], the figure is 0.79 nM.
With `COCc1noc(N2CCC([C@@H]3C[C@H]3CCOc3cc(F)c(CC(=O)N(C)C)c(F)c3)CC2)n1` [Example 78, 2-(2,6-difluoro-4-(2-((1S,2S)-2-(1-(3-(methoxymethyl)-1,2,4-oxadiazol-5-yl)piperidin-4-yl)cyclopropyl)ethoxy)phenyl)-N,N-dimethylacetamide], the EC50 is 6.7 nM. Compared with the last molecule, the EC50 is about 8.5-fold higher.
The result for `CC(C)c1noc(N2CCC([C@H]3C[C@@H]3CCOc3cc(F)c(CC(=O)N4CCC4)c(F)c3)CC2)n1` [Example 79, 1-(azetidin-1-yl)-2-(2,6-difluoro-4-(2-((1R,2R)-2-(1-(3-isopropyl-1,2,4-oxadiazol-5-yl)piperidin-4-yl)cyclopropyl)ethoxy)phenyl)ethanone] reads 0.55 nM; that for `COCc1noc(N2CCC([C@H]3C[C@@H]3CCOc3cc(F)c(CC(=O)N4CCC4)c(F)c3)CC2)n1` [Example 80, 1-(azetidin-1-yl)-2-(2,6-difluoro-4-(2-((1R,2R)-2-(1-(3-(methoxymethyl)-1,2,4-oxadiazol-5-yl)piperidin-4-yl)cyclopropyl)ethoxy)phenyl)ethanone], 2.4 nM; that for `CC(C)c1noc(N2CCC([C@H]3C[C@@H]3CCOc3cc(F)c(CC(=O)N(C)C)c(F)c3)CC2)n1` [Example 81, 2-(2,6-difluoro-4-(2-((1R,2R)-2-(1-(3-isopropyl-1,2,4-oxadiazol-5-yl)piperidin-4-yl)cyclopropyl)ethoxy)phenyl)-N,N-dimethylacetamide], 0.67 nM.
As for `CC(C)c1noc(N2CCC([C@@H]3C[C@H]3CCOc3cc(F)c(CC(=O)N4CCC4)c(F)c3)CC2)n1` [Example 82, 1-(azetidin-1-yl)-2-(2,6-difluoro-4-(2-((1S,2S)-2-(1-(3-isopropyl-1,2,4-oxadiazol-5-yl)piperidin-4-yl)cyclopropyl)ethoxy)phenyl)ethanone], the figure is 0.51 nM; as for `COCc1noc(N2CCC([C@@H]3C[C@H]3CCOc3cc(F)c(CC(=O)N4CCC4)c(F)c3)CC2)n1` [Example 83, 1-(azetidin-1-yl)-2-(2,6-difluoro-4-(2-((1S,2S)-2-(1-(3-(methoxymethyl)-1,2,4-oxadiazol-5-yl)piperidin-4-yl)cyclopropyl)ethoxy)phenyl)ethanone], 5.2 nM.
The result for `COCc1noc(N2CCC([C@H]3C[C@@H]3CCOc3cc(F)c(CC(=O)N(C)C)c(F)c3)CC2)n1` [Example 84, 2-(2,6-difluoro-4-(2-((1R,2R)-2-(1-(3-(methoxymethyl)-1,2,4-oxadiazol-5-yl)piperidin-4-yl)cyclopropyl)ethoxy)phenyl)-N,N-dimethylacetamide] reads 3 nM; that for `CC(C)c1noc(N2CCC([C@H]3C[C@@H]3CCOc3ccc(S(C)(=O)=O)cc3F)CC2)n1` [Example 85, 5-(4-((1R,2R)-2-(2-(2-fluoro-4-(methylsulfonyl)phenoxy)ethyl)cyclopropyl)piperidin-1-yl)-3-isopropyl-1,2,4-oxadiazole], 17 nM; that for `CC(C)c1noc(N2CCC([C@H]3C[C@@H]3CCOc3ccc(-n4cnnn4)c(F)c3)CC2)n1` [Example 86, 5-(4-((1R,2R)-2-(2-(3-fluoro-4-(1H-tetrazol-1-yl)phenoxy)ethyl)cyclopropyl)piperidin-1-yl)-3-isopropyl-1,2,4-oxadiazole], 13 nM.
